Source: patent publication US20100029554A1, “Composition and Methods for Treatment of Congestive Heart Failure” (Amylin Pharmaceuticals, Inc., priority 2006, published 2010)

Tests used:
NH/Swiss mice = test: Glucose lowering assay; type: in vivo, mouse; conditions: IP, 2 nmol/kg, change in blood glucose relative to vehicle
Protocol: Female NH/Swiss mice (˜8-20 weeks of age), (Harlan, Indianapolis, Ind., USA), housed 3 mice per cage, are allowed ad libitum access to food and water until the start of the experiment. At two hours prior to treatment, access to food is restricted.
At the time of treatment, the tip of the tail is pricked with a needle to obtain 1 μl blood as a “pre-treatment” control blood sample. Immediately thereafter, each mouse is injected intraperitoneally (IP) with a test sample (1 nmol/kg or 2 nmol/kg) or 200 μl vehicle (10% DMSO saline). Additional blood samples are collected at 30, 60, 120, 180, and 240 minutes after injection.
Blood glucose is measured with a glucose oxidase biosensor (OneTouch® Ultra® (LifeScan, Inc., a Johnson & Johnson Company, Milpitas, Calif.)). At each time point, the effect of the test sample is expressed as the percent change in blood glucose relative to mice injected with vehicle only. Test samples and vehicle controls are also compared to their respective “pre-treatment” controls.
Significant test sample effects are identified by ANOVA (p<0.05). Where a significant difference existed, test means are compared to the control mean with Dunnett's post test using GraphPad Prism version 4.00 for Windows, GraphPad Software, San Diego Calif. USA, www.graphpad.com).

Plasma stability = type: in vitro ADME; conditions: 20 μg/mL in plasma, 37° C., 0-5 hours
Protocol: To assess stability, the compound of interest is spiked into plasma at a concentration of 20 μg/mL. It is incubated at 37° C. for 0, 1, 2 3, 4, 5 hours in triplicate. At each time point, MeOH is added to a 96 well microtiter plate and then sample is added in a ratio of 1 part sample to 4 parts MeOH to quench the digestion reaction. Samples are mixed with multi-channel pipette or liquid handler. The plate is then centrifuged for 10 minutes and placed in an autosampler kept at 10° C. Samples are then injected into a mass spectrometer (API 3000, Applied Biosystems) equipped with an autosampler (Leap HTC Pal) and HPLC pumps (Shimadzu LC-10ADVP).

Structure (SMILES)	GLU LOWERING AUC240 @2 nmol/kg (NH/Swiss mice) [%]	plasma stability as compared to native GLP-1 (Plasma stability)	plasma stability as compared to native GLP-1 (Plasma stability; second, narrower list of b152)
CC[C@H](C)[C@H](NC(=O)[C@H](Cc1ccccc1)NC(=O)[C@H](CC(C)C)NC(=O)[C@H](CCCNC(=N)N)NC(=O)[C@@H](NC(=O)[C@H](C)NC(=O)[C@H](CCC(=O)O)NC(=O)[C@H](CCC(=O)O)NC(=O)[C@H](CCC(=O)O)NC(=O)[C@H](CC(C)C)NC(=O)[C@H](Cc1ccc(O)cc1)NC(=O)[C@H](CCC(=O)O)NC(=O)[C@@H](NC(=O)[C@@H](NC(=O)[C@H](CC(=O)O)NC(=O)[C@H](CC(N)=O)NC(=O)[C@@H](NC(=O)[C@H](Cc1ccc(O)cc1)NC(=O)[C@@H](NC(=O)CNC(=O)[C@H](CCC(=O)O)NC(=O)CNC(=O)[C@@H](N)Cc1c[nH]cn1)[C@@H](C)O)[C@@H](C)O)C(C)C)[C@@H](C)O)C(C)C)C(=O)N[C@@H](CCC(=O)O)C(=O)N[C@@H](Cc1c[nH]c2ccccc12)C(=O)N[C@@H](CC(C)C)C(=O)N[C@@H](CCCCN)C(=O)N[C@@H](CC(N)=O)C(=O)NCC(=O)NCC(=O)N1CCC[C@H]1C(=O)N[C@@H](CO)C(=O)N[C@@H](CO)C(=O)NCC(=O)N[C@@H](C)C(=O)N1CCC[C@H]1C(=O)N1CCC[C@H]1C(=O)N1CCC[C@H]1C(=O)N[C@@H](CO)C(N)=O [Cmpd 5271]	−17	increased plasma stability	–
CC[C@H](C)[C@H](NC(=O)[C@H](Cc1ccccc1)NC(=O)[C@H](CC(C)C)NC(=O)[C@H](CCCNC(=N)N)NC(=O)[C@H](C)NC(=O)[C@H](C)NC(=O)[C@H](CCC(=O)O)NC(=O)[C@H](CCC(=O)O)NC(=O)[C@H](CCC(=O)O)NC(=O)[C@H](CC(C)C)NC(=O)[C@H](Cc1ccc(O)cc1)NC(=O)[C@H](CO)NC(=O)[C@H](CO)NC(=O)[C@@H](NC(=O)[C@H](CC(=O)O)NC(=O)[C@H](CC(N)=O)NC(=O)[C@@H](NC(=O)[C@H](Cc1ccc(O)cc1)NC(=O)[C@@H](NC(=O)CNC(=O)[C@H](CCC(=O)O)NC(=O)CNC(=O)[C@@H](N)Cc1c[nH]cn1)[C@@H](C)O)[C@@H](C)O)C(C)C)C(=O)N[C@@H](CCC(=O)O)C(=O)N[C@@H](Cc1c[nH]c2ccccc12)C(=O)N[C@@H](CC(C)C)C(=O)N[C@@H](CCCCN)C(=O)N[C@@H](CCC(N)=O)C(=O)NCC(=O)NCC(=O)N1CCC[C@H]1C(=O)N[C@@H](CO)C(=O)N[C@@H](CO)C(=O)NCC(=O)N[C@@H](C)C(=O)N1CCC[C@H]1C(=O)N1CCC[C@H]1C(=O)N1CCC[C@H]1C(=O)N[C@@H](CO)C(N)=O [Cmpd 5182]	−16	increased plasma stability	increased plasma stability
